Measurements from US9850283B2, “Macrocyclic inhibitors of the PD-1/PD-L1 and CD80(B7-1)/PD-L1 protein/protein interactions” (BRISTOL-MYERS SQUIBB COMPANY, priority 2013, dated 2017).
Where two headings read alike, the source gives them in different places. Positions of bridges follow the written chain, without caps; N, C: chain ends. Non-standard residues stand in square brackets, D forms with d. Residues, ends and D or L forms follow the SMILES beside them. ξ: configuration not given here. Trp(5-Cl) = N[C@@H](Cc1c[nH]c2ccc(Cl)cc12)C(=O)O; Phe(3-Cl) = N[C@@H](Cc1cccc(Cl)c1)C(=O)O; Pro(4,4-F2) = O=C(O)[C@@H]1CC(F)(F)CN1; d(cisHyp) = O=C(O)[C@H]1C[C@@H](O)CN1; Bta = N[C@@H](Cc1csc2ccccc12)C(=O)O; Hyp = O=C(O)[C@@H]1C[C@@H](O)CN1; NMeF = CN[C@@H](Cc1ccccc1)C(=O)O; NMeL = CN[C@@H](CC(C)C)C(=O)O; NMehSer = CN[C@@H](CCO)C(=O)O; Thr(3ξ) = CC(O)[C@H](N)C(=O)O; NMeNle = CCCC[C@H](NC)C(=O)O; NMeM = CN[C@@H](CCSC)C(=O)O; NMeA = CN[C@@H](C)C(=O)O; Dab = NCC[C@H](N)C(=O)O; Dap = NC[C@H](N)C(=O)O; ξC = NC(CS)C(=O)O; Sar = CNCC(=O)O

Experiments:
[1] = biological target: T1, Human PD-L1/PD-1 (Homo sapiens, UniProt Q9NZQ7); assay: HTRF PD-1-Ig/PD-L1-His binding assay (human PD-L1); conditions: cluster symbol; read-out: HTRF IC50 cluster
T1 construct: made in house; host or cells: HEK293T
T1 sequence (Q9NZQ7 with tags, fused parts or gaps): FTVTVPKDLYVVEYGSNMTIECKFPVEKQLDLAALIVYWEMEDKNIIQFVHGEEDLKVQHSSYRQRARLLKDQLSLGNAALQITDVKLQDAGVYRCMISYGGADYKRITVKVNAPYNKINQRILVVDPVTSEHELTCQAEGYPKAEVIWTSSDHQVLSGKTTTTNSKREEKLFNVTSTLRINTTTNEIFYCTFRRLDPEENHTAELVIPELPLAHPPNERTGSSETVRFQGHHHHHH
In short: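 Interaction of Fc-tagged soluble PD-1 with His-tagged soluble PD-L1 is monitored by time-resolved FRET. Donor is europium cryptate anti-Ig (1 nM final) and acceptor is APC anti-His (20 nM final). Assay buffer is dPBS with 0.1% BSA and 0.05% Tween-20.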

[2] = biological target: T2, LK35.2-hPD-L1 cells / PE-labeled PD-1-Ig (Homo sapiens, UniProt Q9NZQ7); assay: LK35.2-hPD-L1 cell binding high-content screening assay; assay type: cell-based; conditions: cluster symbol, read-out: CBA IC50 cluster
T2 construct: expressed in transfected cells; host or cells: LK35.2 mouse B cell line
T2 sequence (Q9NZQ7 19-290): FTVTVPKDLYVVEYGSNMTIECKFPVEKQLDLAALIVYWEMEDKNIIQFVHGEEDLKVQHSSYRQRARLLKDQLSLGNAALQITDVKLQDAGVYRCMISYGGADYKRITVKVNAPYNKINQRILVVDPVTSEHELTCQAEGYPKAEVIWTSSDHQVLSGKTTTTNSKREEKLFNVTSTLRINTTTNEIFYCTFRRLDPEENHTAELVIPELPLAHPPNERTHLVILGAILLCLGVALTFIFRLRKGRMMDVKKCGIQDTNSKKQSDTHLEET
In short: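 Mouse LK35.2 B cells stably over-expressing human PD-L1, cultured overnight, treated with compound plus PE-labeled human PD-1-Ig (1 nM final) in RPMI/10% FCS for 1 h at 37 °C. After washing, bound fluorescence quantified by high-content imaging.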

[3] = cell binding assay, cell line not given
[4] = cell line of CBA not given (LK35.2-hPD-L1 or 293T-hPD-L1)

SMILES	IC50 [1]	IC50 [2, 3]	IC50 [2, 4]
CCCC[C@H]1C(=O)N(C)[C@@H](CCCC)C(=O)N[C@@H](CCCNC(=N)N)C(=O)N[C@H](C(=O)NCC(N)=O)CSCC(=O)N[C@@H](Cc2ccccc2)C(=O)N(C)[C@@H](C)C(=O)N[C@@H](CC(N)=O)C(=O)N2CCC[C@H]2C(=O)N[C@@H](Cc2cnc[nH]2)C(=O)N[C@@H](C(C)O)C(=O)N(C)CC(=O)N[C@@H](Cc2c[nH]c3ccccc23)C(=O)N[C@@H](CO)C(=O)N[C@@H](Cc2c[nH]c3ccccc23)C(=O)N1C (stereo partly shown) [Example 6005] ({CH2CO}-F[NMeA]NPH[Thr(3ξ)][Sar]WSW[NMeNle][NMeNle]RCG-NH2; thioether N-14)	6.76 to 30.3 nM	4.78 to 72.9 nM	–
CCCC[C@H]1C(=O)N(C)CC(=O)N[C@@H](CC(=O)O)C(=O)N[C@@H](C(C)C)C(=O)N(C)[C@@H](Cc2ccccc2)C(=O)N[C@@H](Cc2c[nH]c3ccc(Cl)cc23)C(=O)N(C)CC(=O)N[C@@H](Cc2c[nH]c3ccccc23)C(=O)N[C@@H](Cc2ccc(O)cc2)C(=O)N[C@@H](CC(C)C)C(=O)N[C@H](C(=O)NCC(N)=O)CSCC(=O)N[C@@H](Cc2ccccc2)C(=O)N(C)[C@@H](Cc2ccccc2)C(=O)N1C [Example 3109] ({CH2CO}-F[NMeF][NMeNle][Sar]DV[NMeF][Trp(5-Cl)][Sar]WYLCG-NH2; thioether N-13)	> 30.5 nM	–	4.78 to 72.9 nM
CCCC[C@H]1C(=O)N[C@@H](CCCNC(=N)N)C(=O)NC(C(=O)NCC(N)=O)CSCC(=O)N[C@@H](Cc2ccc(O)cc2)C(=O)N(C)[C@@H](C)C(=O)N[C@@H](CC(N)=O)C(=O)N2CCC[C@H]2C(=O)N[C@@H](CO)C(=O)N[C@@H](CC(C)C)C(=O)N2C[C@H](O)C[C@H]2C(=O)N[C@@H](Cc2c[nH]c3ccccc23)C(=O)N[C@@H](CO)C(=O)N[C@@H](Cc2csc3ccccc23)C(=O)N(C)[C@@H](CCSC)C(=O)N1C (stereo partly shown) [Example 9099] ({CH2CO}-Y[NMeA]NPSL[Hyp]WS[Bta][NMeM][NMeNle]R[ξC]G-NH2; thioether N-14)	0.385 to 6.74 nM	0.158 to 4.71 nM	–
CCCC[C@H]1C(=O)N(C)[C@@H](CC(C)C)C(=O)N[C@@H](CN)C(=O)N[C@H](C(=O)NCC(N)=O)CSCC(=O)N[C@@H](Cc2ccc(O)cc2)C(=O)N(C)[C@@H](C)C(=O)N[C@@H](CC(N)=O)C(=O)N2CCC[C@H]2C(=O)N[C@@H](Cc2c[nH]cn2)C(=O)N[C@@H](CCC(=O)O)C(=O)N2C[C@H](O)C[C@H]2C(=O)N[C@@H](Cc2c[nH]c3ccccc23)C(=O)N[C@@H](CCN)C(=O)N[C@@H](Cc2c[nH]c3ccccc23)C(=O)N1C [Example 5141] ({CH2CO}-Y[NMeA]NPHE[Hyp]W[Dab]W[NMeNle][NMeL][Dap]CG-NH2; thioether N-14)	0.385 to 6.74 nM	4.78 to 72.9 nM	–
CCCC[C@H]1C(=O)N(C)[C@@H](CCCC)C(=O)N[C@@H](CCCNC(=N)N)C(=O)N[C@H](C(=O)NCC(N)=O)CSCC(=O)N[C@@H](Cc2ccc(O)cc2)C(=O)N(C)[C@@H](C)C(=O)N[C@@H](CC(N)=O)C(=O)N2CCC[C@H]2C(=O)N[C@@H](Cc2cnc[nH]2)C(=O)N[C@@H](CC(C)C)C(=O)N2C[C@H](C#N)C[C@H]2C(=O)N[C@@H](Cc2c[nH]c3ccccc23)C(=O)N[C@@H](CO)C(=O)N[C@@H](Cc2c[nH]c3ccccc23)C(=O)N1C [Example 6022]	0.385 to 6.74 nM	0.158 to 4.71 nM	–
CCCC[C@H]1C(=O)N[C@@H](C)C(=O)NC(C(=O)NCC(N)=O)CSCC(=O)N[C@@H](Cc2ccc(O)cc2)C(=O)N(C)[C@@H](C)C(=O)N[C@@H](CC(N)=O)C(=O)N2CCC[C@H]2C(=O)N[C@@H](CN)C(=O)N[C@@H](CC(C)C)C(=O)N2CCC[C@H]2C(=O)N[C@@H](Cc2c[nH]c3ccccc23)C(=O)N[C@@H](CO)C(=O)N[C@@H](Cc2csc3ccccc23)C(=O)N(C)[C@@H](CCSC)C(=O)N1C (stereo partly shown) [Example 9094] ({CH2CO}-Y[NMeA]NP[Dap]LPWS[Bta][NMeM][NMeNle]A[ξC]G-NH2; thioether N-14)	0.385 to 6.74 nM	4.78 to 72.9 nM	–
CCCC[C@H]1C(=O)N(C)CC(=O)N[C@@H](CC(=O)O)C(=O)N[C@@H](CC(C)C)C(=O)N(C)[C@@H](Cc2ccccc2)C(=O)N[C@@H](Cc2ccc(O)cc2)C(=O)N(C)CC(=O)N[C@@H](Cc2c[nH]c3ccccc23)C(=O)N[C@@H](Cc2ccc(O)cc2)C(=O)N[C@@H](CC(C)C)C(=O)N[C@H](C(=O)NCC(N)=O)CSCC(=O)N[C@@H](Cc2ccccc2)C(=O)N(C)[C@@H](Cc2ccccc2)C(=O)N1C [Example 3529] (HELM PEPTIDE1{[O=C(C[*:3])[*:2]].F.[meF].[CCCC[C@@H](C(=O)[*:2])N(C)[*:1]].[Sar].D.L.[meF].Y.[Sar].W.Y.L.C.G.[am]}$PEPTIDE1,PEPTIDE1,1:R3-14:R3$$$V2.0)	> 30.5 nM	4.78 to 72.9 nM	–
CCCC[C@H]1C(=O)N(C)[C@@H](CCSC)C(=O)N[C@@H](CCCNC(=N)N)C(=O)NC(C(=O)NCC(N)=O)CSCC(=O)N[C@@H](Cc2ccc(O)cc2)C(=O)N(C)[C@@H](C)C(=O)N[C@@H](CC(N)=O)C(=O)N2CCC[C@H]2C(=O)N[C@@H](Cc2cnc[nH]2)C(=O)N[C@@H](CO)C(=O)N2CCC[C@H]2C(=O)N[C@@H](Cc2c[nH]c3ccccc23)C(=O)N[C@@H](CO)C(=O)N[C@@H](Cc2c[nH]c3ccccc23)C(=O)N1C (stereo partly shown) [Example 9105] ({CH2CO}-Y[NMeA]NPHSPWSW[NMeNle][NMeM]R[ξC]G-NH2; thioether N-14)	0.385 to 6.74 nM	4.78 to 72.9 nM	–
CCCC[C@H]1C(=O)N(C)[C@@H](CCCC)C(=O)N[C@@H](CCCNC(=N)N)C(=O)NC(C(=O)NCC(N)=O)CSCC(=O)N[C@@H](Cc2ccc(O)cc2)C(=O)N(C)[C@@H](C)C(=O)N[C@@H](CC(N)=O)C(=O)N2CCC[C@H]2C(=O)N[C@@H](CC(N)=O)C(=O)N[C@@H](CC(C)C)C(=O)N2C[C@H](O)C[C@H]2C(=O)N[C@@H](Cc2c[nH]c3ccccc23)C(=O)N[C@@H](CO)C(=O)N[C@@H](Cc2csc3ccccc23)C(=O)N1C (stereo partly shown) [Example 9062] ({CH2CO}-Y[NMeA]NPNL[Hyp]WS[Bta][NMeNle][NMeNle]R[ξC]G-NH2; thioether N-14)	0.385 to 6.74 nM	0.158 to 4.71 nM	–
CCCC[C@H]1C(=O)N(C)[C@@H](CCCC)C(=O)N[C@@H](CCCNC(=N)N)C(=O)N[C@H](C(=O)NCC(N)=O)CSCC(=O)N[C@@H](Cc2ccc(O)cc2)C(=O)N(C)[C@@H](C)C(=O)N[C@@H](CC(N)=O)C(=O)N2CCC[C@H]2C(=O)N[C@@H](Cc2cnc[nH]2)C(=O)N[C@@H](CC(C)C)C(=O)N2CC(F)(F)C[C@H]2C(=O)N[C@@H](Cc2c[nH]c3ccccc23)C(=O)N[C@@H](CO)C(=O)N[C@@H](Cc2csc3ccccc23)C(=O)N1C [Example 1036] ({CH2CO}-Y[NMeA]NPHL[Pro(4,4-F2)]WS[Bta][NMeNle][NMeNle]RCG-NH2; thioether N-14)	6.76 to 30.3 nM	–	0.158 to 4.71 nM
CCCC[C@H]1C(=O)N(C)[C@@H](CCOC)C(=O)N[C@@H](CCCNC(=N)N)C(=O)N[C@H](C(=O)NCC(N)=O)CSCC(=O)N[C@@H](Cc2ccc(O)cc2)C(=O)N(C)[C@@H](C)C(=O)N[C@@H](CC(N)=O)C(=O)N2CCC[C@H]2C(=O)N[C@@H](Cc2cnc[nH]2)C(=O)N[C@@H](CC(C)C)C(=O)N2C[C@H](O)C[C@@H]2C(=O)N[C@@H](Cc2c[nH]c3ccccc23)C(=O)N[C@@H](CO)C(=O)N[C@@H](Cc2csc3ccccc23)C(=O)N1C [Example 9006] ({CH2CO}-Y[NMeA]NPHL[d(cisHyp)]WS[Bta][NMeNle][NMehSer](Me)RCG-NH2; thioether N-14)	0.385 to 6.74 nM	0.158 to 4.71 nM	–
CCCC[C@H]1C(=O)N(C)[C@@H](CCCC)C(=O)N[C@@H](CCCNC(=N)N)C(=O)N[C@H](C(=O)NCC(=O)NCC(=O)NCC(N)=O)CSCC(=O)N[C@@H](Cc2ccc(O)cc2)C(=O)N(C)[C@@H](C)C(=O)N[C@@H](CC(N)=O)C(=O)N2CCC[C@H]2C(=O)N[C@@H](Cc2cnc[nH]2)C(=O)N[C@@H](CC(C)C)C(=O)N2CCC[C@H]2C(=O)N[C@@H](Cc2c[nH]c3ccccc23)C(=O)N[C@@H](CO)C(=O)N[C@@H](Cc2c[nH]c3ccccc23)C(=O)N1C [Example 6020] ({CH2CO}-Y[NMeA]NPHLPWSW[NMeNle][NMeNle]RCGGG-NH2; thioether N-14)	0.385 to 6.74 nM	0.158 to 4.71 nM	–
CCCC[C@H]1C(=O)N(C)CC(=O)N[C@@H](CC(=O)O)C(=O)N[C@@H](C(C)C)C(=O)N(C)[C@@H](Cc2ccccc2)C(=O)N[C@@H](Cc2ccc(O)cc2)C(=O)N(C)CC(=O)N[C@@H](Cc2csc3ccccc23)C(=O)N[C@@H](Cc2ccc(O)cc2)C(=O)N[C@@H](CC(C)C)C(=O)N[C@H](C(=O)NCC(N)=O)CSCC(=O)N[C@@H](Cc2cccc(Cl)c2)C(=O)N(C)[C@@H](Cc2ccccc2)C(=O)N1C [Example 3114] ({CH2CO}-[Phe(3-Cl)][NMeF][NMeNle][Sar]DV[NMeF]Y[Sar][Bta]YLCG-NH2; thioether N-13)	6.76 to 30.3 nM	–	4.78 to 72.9 nM
CCCC[C@H]1C(=O)N(C)[C@@H](CCCC)C(=O)N[C@@H](CCCNC(=N)N)C(=O)N[C@H](C(=O)NCC(N)=O)CSCC(=O)N[C@@H](Cc2ccccc2)C(=O)N(C)[C@@H](C)C(=O)N[C@@H](CCC(N)=O)C(=O)N2CCC[C@H]2C(=O)N[C@@H](Cc2cnc[nH]2)C(=O)N[C@@H](CC(C)C)C(=O)N(C)CC(=O)N[C@@H](Cc2c[nH]c3ccccc23)C(=O)N[C@@H](CO)C(=O)N[C@@H](Cc2c[nH]c3ccccc23)C(=O)N1C [Example 1089] ({CH2CO}-F[NMeA]QPHL[Sar]WSW[NMeNle][NMeNle]RCG-NH2; thioether N-14)	> 30.5 nM	–	> 74.3 nM
